Data taken from the supplement of paper PMC10307832.

How the values were obtained:
Assay in all cases: relative viability (nuclei count vs DMSO), 5 days (fraction); higher = more cells survive
NCI-H727 = tested on: NCI-H727
Procedure, shortened: (§1)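 Relative viability was taken as the ratio of nuclei in treated wells to nuclei in vehicle wells. Lung cancer cell lines in 1536-well plates received compounds by pin tool one day after seeding, either one drug alone or a fixed anchor-drug dose plus five library-drug doses (not always all listed) in √10 steps. Nuclei were counted on 4× images after 5 days of treatment, and values are medians of duplicate plates.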

NCI-H1944 = tested on: NCI-H1944
Procedure, shortened: as §1

NCI-H3122 = tested on: NCI-H3122
Procedure, shortened: as §1

COR-L 105 = tested on: COR-L 105
Procedure, shortened: as §1

PC-14 = tested on: PC-14
Procedure, shortened: as §1

NCI-H661 = tested on: NCI-H661
Procedure, shortened: as §1

NCI-H358 = tested on: NCI-H358
Procedure, shortened: as §1

SK-LU-1 = tested on: SK-LU-1
Procedure, shortened: as §1

ChaGo-K-1 = tested on: ChaGo-K-1
Procedure, shortened: as §1

HCC-827 = tested on: HCC-827
Procedure, shortened: as §1

LCLC-103H = tested on: LCLC-103H
Procedure, shortened: as §1

HCC-366 = tested on: HCC-366
Procedure, shortened: as §1

HCC-44 = tested on: HCC-44
Procedure, shortened: as §1

NCI-H2342 = tested on: NCI-H2342
Procedure, shortened: as §1

HCC-78 = tested on: HCC-78
Procedure, shortened: as §1

UMC-11 = tested on: UMC-11
Procedure, shortened: as §1

EPLC-272H = tested on: EPLC-272H
Procedure, shortened: as §1

HCC-15 = tested on: HCC-15
Procedure, shortened: as §1

NCI-H1792 = tested on: NCI-H1792
Procedure, shortened: as §1

NCI-H1437 = tested on: NCI-H1437
Procedure, shortened: as §1

SK-MES-1 = tested on: SK-MES-1
Procedure, shortened: as §1

NCI-H2085 = tested on: NCI-H2085
Procedure, shortened: as §1

COCC1(CO)C(=O)C2CCN1CC2 (stereo not given) [PRIMA-1MET] + COc1cccc2cc(-c3nc([C@H]4CC[C@H](C(=O)O)CC4)n4ncnc(N)c34)[nH]c12 [OSI-027] (partner 0.5 µM)
relative viability (NCI-H727; first compound 0.2 µM): 0.357
relative viability (NCI-H727; first compound 0.6325 µM): 0.371
relative viability (NCI-H727; first compound 2 µM): 0.498
relative viability (NCI-H727; first compound 6.325 µM): 0.536
relative viability (NCI-H727; first compound 20 µM): 0.338
relative viability (NCI-H1944; first compound 0.2 µM): 0.408
relative viability (NCI-H1944; first compound 0.6325 µM): 0.359
relative viability (NCI-H1944; first compound 2 µM): 0.3
relative viability (NCI-H1944; first compound 6.325 µM): 0.409
relative viability (NCI-H1944; first compound 20 µM): 0.393
relative viability (NCI-H3122; first compound 0.2 µM): 0.594
relative viability (NCI-H3122; first compound 0.6325 µM): 0.871
relative viability (NCI-H3122; first compound 6.325 µM): 0.74
relative viability (NCI-H3122; first compound 20 µM): 0.831
relative viability (COR-L 105; first compound 0.2 µM): 0.899
relative viability (COR-L 105; first compound 0.6325 µM): 0.66
relative viability (COR-L 105; first compound 2 µM): 0.488
relative viability (COR-L 105; first compound 6.325 µM): 0.662
relative viability (COR-L 105; first compound 20 µM): 0.0915
relative viability (PC-14; first compound 0.2 µM): 1.01
relative viability (PC-14; first compound 0.6325 µM): 0.779
relative viability (PC-14; first compound 2 µM): 0.975
relative viability (PC-14; first compound 6.325 µM): 0.848
relative viability (PC-14; first compound 20 µM): 0.0163
relative viability (NCI-H661; first compound 0.2 µM): 0.747
relative viability (NCI-H661; first compound 0.6325 µM): 0.65
relative viability (NCI-H661; first compound 2 µM): 0.617
relative viability (NCI-H661; first compound 6.325 µM): 0.749
relative viability (NCI-H661; first compound 20 µM): 0.622
relative viability (NCI-H358; first compound 0.2 µM): 0.734
relative viability (NCI-H358; first compound 2 µM): 0.653
relative viability (NCI-H358; first compound 6.325 µM): 0.954
relative viability (NCI-H358; first compound 20 µM): 0.365
relative viability (SK-LU-1; first compound 0.2 µM): 0.321
relative viability (SK-LU-1; first compound 0.6325 µM): 0.375
relative viability (SK-LU-1; first compound 2 µM): 0.256
relative viability (SK-LU-1; first compound 6.325 µM): 0.338
relative viability (SK-LU-1; first compound 20 µM): 0.0616
relative viability (ChaGo-K-1; first compound 0.2 µM): 0.581
relative viability (ChaGo-K-1; first compound 0.6325 µM): 0.518
relative viability (ChaGo-K-1; first compound 2 µM): 0.522
relative viability (ChaGo-K-1; first compound 6.325 µM): 0.53
relative viability (ChaGo-K-1; first compound 20 µM): 0.448
relative viability (HCC-827; first compound 0.2 µM): 0.694
relative viability (HCC-827; first compound 0.6325 µM): 0.668
relative viability (HCC-827; first compound 2 µM): 0.625
relative viability (HCC-827; first compound 6.325 µM): 0.784
relative viability (HCC-827; first compound 20 µM): 0.748
relative viability (LCLC-103H; first compound 0.2 µM): 0.547
relative viability (LCLC-103H; first compound 0.6325 µM): 0.391
relative viability (LCLC-103H; first compound 2 µM): 0.399
relative viability (LCLC-103H; first compound 6.325 µM): 0.481
relative viability (LCLC-103H; first compound 20 µM): 0.409
relative viability (HCC-366; first compound 0.2 µM): 0.389
relative viability (HCC-366; first compound 0.6325 µM): 0.725
relative viability (HCC-366; first compound 2 µM): 0.303
relative viability (HCC-366; first compound 6.325 µM): 1.01
relative viability (HCC-366; first compound 20 µM): 0.927
relative viability (HCC-44; first compound 0.2 µM): 0.584
relative viability (HCC-44; first compound 0.6325 µM): 0.472
relative viability (HCC-44; first compound 2 µM): 0.383
relative viability (HCC-44; first compound 6.325 µM): 0.397
relative viability (HCC-44; first compound 20 µM): 0.485
relative viability (NCI-H2342; first compound 0.2 µM): 0.598
relative viability (NCI-H2342; first compound 0.6325 µM): 0.59
relative viability (NCI-H2342; first compound 2 µM): 0.483
relative viability (NCI-H2342; first compound 6.325 µM): 0.595
relative viability (NCI-H2342; first compound 20 µM): 0.565
relative viability (HCC-78; first compound 0.2 µM): 0.385
relative viability (HCC-78; first compound 0.6325 µM): 0.345
relative viability (HCC-78; first compound 6.325 µM): 0.339
relative viability (HCC-78; first compound 20 µM): 0.199
relative viability (UMC-11; first compound 0.2 µM): 0.478
relative viability (UMC-11; first compound 0.6325 µM): 0.46
relative viability (UMC-11; first compound 2 µM): 0.432
relative viability (UMC-11; first compound 6.325 µM): 0.485
relative viability (UMC-11; first compound 20 µM): 0.444
relative viability (EPLC-272H; first compound 2 µM): 0.235
relative viability (EPLC-272H; first compound 6.325 µM): 0.27
relative viability (EPLC-272H; first compound 20 µM): 0.0689
relative viability (HCC-15; first compound 0.2 µM): 0.534
relative viability (HCC-15; first compound 0.6325 µM): 0.616
relative viability (HCC-15; first compound 2 µM): 0.526
relative viability (HCC-15; first compound 6.325 µM): 0.559
relative viability (HCC-15; first compound 20 µM): 0.439
relative viability (NCI-H1792; first compound 0.2 µM): 0.683
relative viability (NCI-H1792; first compound 0.6325 µM): 0.693
relative viability (NCI-H1792; first compound 2 µM): 0.635
relative viability (NCI-H1792; first compound 6.325 µM): 0.734
relative viability (NCI-H1792; first compound 20 µM): 0.802
relative viability (NCI-H1437; first compound 0.2 µM): 1.03
relative viability (NCI-H1437; first compound 0.6325 µM): 0.945
relative viability (NCI-H1437; first compound 2 µM): 0.794
relative viability (NCI-H1437; first compound 6.325 µM): 0.893
relative viability (NCI-H1437; first compound 20 µM): 0.887
relative viability (SK-MES-1; first compound 0.2 µM): 0.65
relative viability (SK-MES-1; first compound 0.6325 µM): 0.711
relative viability (SK-MES-1; first compound 2 µM): 0.543
relative viability (SK-MES-1; first compound 6.325 µM): 0.633
relative viability (SK-MES-1; first compound 20 µM): 0.436
relative viability (NCI-H2085; first compound 0.2 µM): 0.707
relative viability (NCI-H2085; first compound 0.6325 µM): 0.665
relative viability (NCI-H2085; first compound 2 µM): 0.315
relative viability (NCI-H2085; first compound 6.325 µM): 0.548
relative viability (NCI-H2085; first compound 20 µM): 0.194
